{"source": "patent US9243255B2", "about": "“Bacterial strains, plasmids, method of producing bacterial strains capable of chemolithotrophic arsenites oxidation and uses thereof” (UNIWERSYTET WARSZAWSKI, priority 2012, dated 2016)", "key": {"[1]": {"tested_on": "Sinorhizobium sp. M14", "assay": "Resistance to As(III)", "assay_type": "cell-based"}, "[2]": {"tested_on": "Paracoccus aminovorans JCM7685", "assay": "Sodium arsenite growth inhibition", "assay_type": "cell-based", "details": "P. aminovorans JCM7685"}, "[3]": {"tested_on": "Stenotrophomonas sp. LM24R", "assay": "Sodium arsenite growth inhibition", "assay_type": "cell-based"}, "[4]": {"tested_on": "Paracoccus alcaliphilus JCM7364R", "assay": "Sodium arsenite growth inhibition", "assay_type": "cell-based", "details": "P. alcaliphilus JCM7364R"}, "[5]": {"tested_on": "P. aminophilus ARS5 (derivative of P. aminophilus JCM7686 harbouring the plasmid pARS1)", "assay": "MIC for As(III)", "assay_type": "cell-based", "details": "Paracoccus aminophilus, derivative with pARS1, LB medium, 48 h, 30° C.", "protocol": "(§1) FIG. 8. […] In order to compare the MICs for As(III), cultures were carried out in LB medium, with various concentrations of sodium arsenite (up to 20 mM). After 48 h of cultivation at 30° C., optical density of the cultures (OD600nm measurements of absorbance at 600 nm) was monitored.\n(§2) In all the conjugations, transconjugants harbouring the plasmid pARS1 were obtained. To confirm that the newly constructed strains, harbouring the plasmid pARS1, have an increased resistance to arsenic, analysis of MIC—minimal concentration of As(III), inhibiting the growth of the following strains: Agrobacterium tumefaciens ARS3 (derivative of A. tumefaciens LBA288 harbouring the plasmid pARS1), Brevundimonas sp. ARS4 (derivative of Brevundimonas sp. sp. OS24R harbouring the plasmid pARS1), P. aminophilus ARS5 (derivative of P. aminophilus JCM7686 harbouring the plasmid pARS1) was carried out. Wild-type strains were used as the control. Growth experiment and MIC analysis for As(III) was carried out in LB medium, with various concentrations of sodium arsenite (up to 20 mM). After 48 h of cultivation at 30° C., optical density of cultures at OD600nm was monitored. […] MIC for As(III) for A. tumefaciens LBA288 strain was 1 mM, while for its derivative, comprising the plasmid pARS1, 20 mM; for P. aminophilus JCM7686R strain 5 mM, while for its derivative, containing the plasmid pARS1, 20 mM. In turn Brevundimonas sp. OS24R could tolerate the maximum of 10 mM of As(III), and its derivative harbouring the plasmid pARS1 was resistant to 20 mM of As(III). The conducted analyses allowed to confirm that the derivative of the plasmid pSinA, comprising the ars module (sequence from 43229 to 50772) can be used for constructing strains with increased resistance to arsenic."}, "[6]": {"tested_on": "Brevundimonas sp. ARS4 (derivative of Brevundimonas sp. OS24R harbouring the plasmid pARS1)", "assay": "MIC for As(III)", "assay_type": "cell-based", "details": "derivative with pARS1; LB medium, 48 h, 30° C.", "protocol": "as §1, §2"}, "[7]": {"tested_on": "Agrobacterium tumefaciens ARS3 (derivative of A. tumefaciens LBA288 harbouring the plasmid pARS1)", "assay": "MIC for As(III)", "assay_type": "cell-based", "details": "derivative with pARS1, LB medium, 48 h, 30° C.", "protocol": "as §1, §2"}, "[8]": {"tested_on": "A. tumefaciens D10", "assay": "Resistance to As(III)", "assay_type": "cell-based, Agrobacterium tumefaciens", "details": "A. tumefaciens D10 with pSinA"}, "[9]": {"tested_on": "Pseudomonas sp. OS29R", "assay": "Resistance to As(III)", "assay_type": "cell-based", "details": "in words"}, "[10]": {"tested_on": "Brevundimonas sp. OS24R", "assay": "As(III) (sodium arsenite) growth inhibition / MIC", "assay_type": "cell-based", "protocol": "as §1, §2"}, "[11]": {"tested_on": "Agrobacterium tumefaciens LBA288", "assay": "As(III) (sodium arsenite) growth inhibition / MIC", "assay_type": "cell-based", "protocol": "as §1, §2"}, "[12]": {"tested_on": "Paracoccus aminophilus JCM7686", "assay": "As(III) (sodium arsenite) growth inhibition / MIC", "assay_type": "cell-based", "protocol": "as §1, §2"}}}
{"smiles": "O=[As]O", "note": "[sodium arsenite]", "values": [{"measurement": "resistant to As (III) (up to)", "setting": "[1]", "value": "up to 20 mM"}, {"measurement": "concentration of sodium arsenite that inhibits growth", "setting": "[2]", "value": 1, "unit": "mM"}, {"measurement": "concentration of sodium arsenite that inhibits growth", "setting": "[3]", "value": 1, "unit": "mM"}, {"measurement": "concentration of sodium arsenite that inhibits growth", "setting": "[4]", "value": 1, "unit": "mM"}, {"measurement": "MIC", "setting": "[5]", "value": 20, "unit": "mM"}, {"measurement": "As(III) concentration the strain is resistant to", "setting": "[6]", "value": 20, "unit": "mM"}, {"measurement": "MIC", "setting": "[7]", "value": 20, "unit": "mM"}, {"measurement": "resistant to As (III) (up to)", "setting": "[8]", "value": "up to 15 mM"}, {"measurement": "resistance to As (III)", "setting": "[9]", "value": "resistant"}, {"measurement": "concentration of sodium arsenite that inhibits growth", "setting": "[10]; Brevundimonas sp. OS24R", "value": 10, "unit": "mM"}, {"measurement": "resistance to As (III)", "setting": "[10]; Brevundimonas sp. OS24R, in words", "value": "resistant"}, {"measurement": "maximum of As(III) tolerated", "setting": "[10]; LB medium, 48 h, 30° C., OD600nm", "value": "≤ 10", "unit": "mM"}, {"measurement": "concentration of sodium arsenite that inhibits growth", "setting": "[11]; A. tumefaciens LBA288", "value": 1, "unit": "mM"}, {"measurement": "MIC", "setting": "[11]; Agrobacterium tumefaciens, LBA288, LB medium, 48 h, 30° C., OD600nm", "value": 1, "unit": "mM"}, {"measurement": "concentration of sodium arsenite that inhibits growth", "setting": "[12]; P. aminophilus JCM7686", "value": 5, "unit": "mM"}, {"measurement": "MIC", "setting": "[12]; Paracoccus aminophilus, JCM7686, 48 h, read-out: MIC for As(III)", "value": 5, "unit": "mM"}]}
